Legend:
SH-SY5Y cells [1] = experiment: LDH release, 6-OHDA-induced toxicity; conditions: 100 μM 6-OHDA, 24 h
MAO-B [2] = molecular target: T1, MAO-B (Mus musculus, UniProt Q8BW75); experiment: In vitro MAO inhibition in mouse brain homogenate, benzylamine substrate; type: biochemical; conditions: substrate of MAO B, control mouse brain homogenates
T1 construct: Brain homogenates from male Swiss mice were first characterized in terms of their MAOs activity; from tissue; host or cells: whole brain homogenate of male Swiss mice
T1 sequence (Q8BW75 1-520): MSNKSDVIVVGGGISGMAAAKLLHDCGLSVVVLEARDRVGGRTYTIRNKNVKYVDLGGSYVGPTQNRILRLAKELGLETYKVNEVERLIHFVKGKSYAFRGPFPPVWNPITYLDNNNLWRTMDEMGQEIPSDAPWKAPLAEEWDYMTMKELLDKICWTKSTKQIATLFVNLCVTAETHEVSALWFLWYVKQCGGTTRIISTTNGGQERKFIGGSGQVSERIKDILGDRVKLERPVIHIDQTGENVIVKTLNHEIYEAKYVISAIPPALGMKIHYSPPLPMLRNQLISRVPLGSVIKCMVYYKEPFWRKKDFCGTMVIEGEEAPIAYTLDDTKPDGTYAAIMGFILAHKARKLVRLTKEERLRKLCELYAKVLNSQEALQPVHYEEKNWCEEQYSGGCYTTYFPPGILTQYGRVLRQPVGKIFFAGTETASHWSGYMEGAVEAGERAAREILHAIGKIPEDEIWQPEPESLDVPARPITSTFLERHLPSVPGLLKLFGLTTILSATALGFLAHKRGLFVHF

SH-SY5Y cells [3] = experiment: MTS cytotoxicity assay; conditions: 24 h, 5 μM and 10 μM
5-HT1A receptor = molecular target: T2, 5-HT1A receptor (Rattus norvegicus, UniProt P19327); experiment: [3H]-8-OH-DPAT radioligand binding assay, rat cortex membranes; conditions: for Ki: [3H]-8-OH-DPAT binding, means ±SEM
T2 construct: from tissue; host or cells: rat (male Wistar) brain cortex membranes
T2 sequence (P19327 1-422): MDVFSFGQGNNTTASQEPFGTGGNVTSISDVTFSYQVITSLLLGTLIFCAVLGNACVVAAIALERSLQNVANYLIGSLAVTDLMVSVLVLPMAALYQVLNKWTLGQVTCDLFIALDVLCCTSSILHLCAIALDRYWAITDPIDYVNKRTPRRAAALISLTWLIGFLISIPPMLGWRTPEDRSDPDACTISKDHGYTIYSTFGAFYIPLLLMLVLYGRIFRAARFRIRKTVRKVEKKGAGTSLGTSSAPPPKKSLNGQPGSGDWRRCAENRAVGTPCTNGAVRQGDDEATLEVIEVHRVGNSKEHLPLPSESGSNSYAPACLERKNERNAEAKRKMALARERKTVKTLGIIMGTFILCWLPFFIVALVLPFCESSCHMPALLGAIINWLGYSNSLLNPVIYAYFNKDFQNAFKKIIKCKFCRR

Swiss mice [4] = experiment: Body mass and survival during 10-day treatment; type: in vivo; conditions: 0.3 mg/kg ip daily
Experimental: Figure S9. In vivo effects of chronic treatment on body mass. Body mass variation (Percent weight) (mean ±SEM) in mice throughout the 10-day i.p. treatment with 69 (0.3 mg/kg; n = 10), 100 (0.3 mg/kg; n = 8) and saline (SAL; n = 16). Data are means ±SEM. All animals survived the treatments.

Swiss mice [5] = experiment: Elevated plus maze test; type: in vivo, mouse
Swiss mice [6] = experiment: Tail suspension test; type: in vivo, mouse
Experimental: The antidepressant-like activity was screened with the widely used tail suspension test. At 30 min before the behavioral assays, the mice were treated with 6, 67, and 69 at 3 mg/kg and 10 mg/kg ip, with 69 also at 1 mg/kg and 30 mg/kg ip, or were injected with 0.9% saline as control. Imipramine (30 mg/kg ip) was used as the reference drug.
(A) Effects of acute ip treatment with 6 (3, 10 mg/kg, n = 13, 9), 67 (3, 10 mg/kg, n = 6, 10), and 69 (1, 3, 10, 30 mg/kg, n = 8, 7, 8, 6) and imipramine (30 mg/kg, n = 8) in the tail suspension test. […] (B) Effects of acute ip treatment with 6 (3, 10 mg/kg, n = 8, 8), 67 (1, 3, 6 mg/kg; n = 5, 5, 5), and 69 (1, 3, 6 mg/kg, n = 10, 5, 5) on locomotor activity of the mice. […] (C) Effects of 10-day chronic ip treatment with 69 (0.3 mg/kg, daily; n = 10) in the tail suspension test. Data are mean values ± SEM of the immobility time, compared to control mice (n = 8): ∗∗, p < 0.01 (unpaired t-test). […]
quality control sample every seven test samples. The absolute matrix effect was checked by comparing the analyte responses in the standard solutions to the samples spiked in the tissue incubation medium from the control experiment without the analyte, and a deviation of less than ±20% was deemed acceptable.
4.2.10In vitro radioligand binding assay
Rats were humanely killed by decapitation and their brains were removed, washed and rapidly dissected on ice. Homogenisation was performed using a homogeniser (PRO Scientific Inc) at 30,000 rpm for 1 min. For 5-HT1A binding assays, the cortex tissues were homogenised in 30 volumes/weight ice-cold 50 mM Tris–HCl buffer (pH 7.4), and the homogenate was centrifuged at 40,000× g for 15 min at 0 °C to 4 °C. The resulting pellets were resuspended in 30 volumes/weight of the same buffer, and incubated at 37 °C for 20 min. The centrifugation step was repeated twice under the same conditions as described above, and the final pellets were resuspended in 30 volumes/weight 50 mM Tris–HCl buffer (pH 7.4), and stored at –80 […]
For the [3H]-8-OH-DPAT binding assay (the 5-HT1A receptor binding assay), the membranes were thawed and resuspended in 50 mM Tris–HCl (pH 7.4) with 1 mM MnCl2, to a final protein concentration of 0.5 mg/mL. The incubation was carried out at 25 °C for 1 h in a final volume of 1 mL membrane suspension in the presence of the sample assayed and with 0.2 nM [3H]-8-OH-DPAT (170.2 Ci/mmol). Serotonin was used as the positive control. Non-specific binding was determined in parallel incubations in the presence of serotonin (10 μM).
4.2.11 Tail suspension test
The tail suspension test was carried out according to the methodology proposed by Steru and co-workers.22 The mice were individually suspended by the tail from a metal hook (distance

[7] = Chemical stability and photoisomerization by proton NMR in D2O; type: physicochemical; conditions: hydrochloride salts, more than 1 year at room temperature protected from sunlight, 1H NMR in D2O
Experimental: Possible chemical instability and photoisomerization of E/Z isomers were also addressed as these are known liabilities of stilbene derivatives.[23] Proton NMRs of 69 (cis derivative), 84 (trans derivative), and 100 (ethyl analogue) in the form of hydrochloride salts were recorded in D2O (Figures S1–S3). […] The samples dissolved in the NMR tubes were then left on the benchtop exposed to natural daylight for 7 days, which could induce photoisomerization. […] Altogether, these studies imply reasonable stability of the compounds.
Figure S2. […] Compound 84 (trans isomer, […]
hydrochloride salt) was dissolved in D2O and the spectra were recorded at time 0 h, 1 h, 24 h and 7 days. Sample was exposed to day light in between the measurement, which could induce photoisomerization and potentially also chemical degradation.
The sample was previously stored at […]

[8] = In vitro permeability, rat intestine in diffusion chambers; type: in vitro ADME
[9] = Thermodynamic solubility in PBS; type: physicochemical; conditions: PBS (pH 7.4), 37 °C, 24 h, hydrochloride salts
MAO-A/B = experiment: In vitro MAO inhibition in mouse brain homogenate, p-tyramine substrate; type: biochemical; conditions: 50 μM compound, homogenate from nontreated mice
Swiss mice [10] = experiment: Locomotor activity test; type: in vivo, mouse
hMAO-A = molecular target: T3, hMAO-A (Homo sapiens, UniProt P21397); experiment: hMAO-A inhibition, HRP–Amplex Red coupled fluorimetric assay; type: biochemical; conditions: supplement csv; RA at 100 micromolar
T3 construct: purchased Sigma Aldrich; host or cells: baculovirus-infected insect cells (BTI-TN-5B1-4)
T3 sequence (P21397 1-527): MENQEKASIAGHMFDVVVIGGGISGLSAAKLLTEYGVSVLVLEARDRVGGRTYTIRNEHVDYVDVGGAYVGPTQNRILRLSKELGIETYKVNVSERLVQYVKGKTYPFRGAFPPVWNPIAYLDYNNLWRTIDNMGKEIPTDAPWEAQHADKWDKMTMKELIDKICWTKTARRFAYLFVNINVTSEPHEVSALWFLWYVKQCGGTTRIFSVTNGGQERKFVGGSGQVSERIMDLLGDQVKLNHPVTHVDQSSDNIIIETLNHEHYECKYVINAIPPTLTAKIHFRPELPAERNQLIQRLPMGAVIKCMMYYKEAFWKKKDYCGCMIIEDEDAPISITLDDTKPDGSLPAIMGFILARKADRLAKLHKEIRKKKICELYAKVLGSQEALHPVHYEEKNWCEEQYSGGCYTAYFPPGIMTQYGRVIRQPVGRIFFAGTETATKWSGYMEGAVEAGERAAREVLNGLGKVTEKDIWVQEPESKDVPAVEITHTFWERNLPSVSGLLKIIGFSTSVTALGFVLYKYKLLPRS

MAO-B [11] = molecular target: T1, MAO-B; experiment: Ex vivo MAO inhibition in brain homogenates of treated mice, benzylamine substrate; conditions: 10 days 0.3 mg/kg ip, with or without haloperidol, two-way ANOVA
Swiss mice [12] = experiment: Haloperidol-induced catalepsy test; type: in vivo, mouse
Swiss mice [13] = experiment: Hole–board test

NCCc1cc(O)c(O)cc1O [6-OHDA, 6-hydroxydopamine]
LDH release vs control (SH-SY5Y cells [1]): 135%

NCc1ccccc1 [Benzylamine]
K0.5 (MAO-B [2]): 0.268 ± 0.017 mM

C#CCN1CCC(/C=C\c2cccc(F)c2)CC1 [Compound 69, (Z)-4-(3-Fluorostyryl)-1-(prop-2-yn-1-yl)piperidine]
cytotoxic effects (SH-SY5Y cells [3]): no significant cytotoxic effects | Ki (5-HT1A receptor): 1.7 ± 0.12 µM | inhibition at 300 µM (5-HT1A receptor; read-out: Inhibition at 300 µM): 92% | body mass variations versus control mice (Swiss mice [4]): No significant differences | Time in centre (%) (Swiss mice [5]; 10-day treatment, 0.3 mg/kg): 28.8 ±4.5% | Time in open arms (%) (Swiss mice [5]; 10-day treatment, 0.3 mg/kg): 11.8 ±3.7% | effects in the elevated plus maze, chronic low dose (Swiss mice [5]; 10-day, 0.3 mg/kg ip daily): No significant effects | Open arm entries (%) (Swiss mice [5]; acute ip, 1 mg/kg): 15.9 ±5.1% | Time in centre (%) (Swiss mice [5]; acute ip, 1 mg/kg): 36.4 ±7.7% | Total arm entries (Swiss mice [5]; acute ip, 1 mg/kg): 17.4 ±2.5 | Open arm entries (%) (Swiss mice [5]; acute ip, 3 mg/kg): 28.0 ±2.9% | Time in centre (%) (Swiss mice [5]; acute ip, 3 mg/kg): 38.0 ±2.9% | Time in open arms (%) (Swiss mice [5]; acute ip, 3 mg/kg): 19.8 ±1.6% | Total arm entries (Swiss mice [5]; acute ip, 3 mg/kg): 22.9 ±1.6 | Open arm entries (%) (Swiss mice [5]; acute ip, 6 mg/kg): 13.3 ±1.2% | Time in centre (%) (Swiss mice [5]; acute ip, 6 mg/kg): 41.4 ±4.1% | Time in open arms (%) (Swiss mice [5]; acute ip, 6 mg/kg): 7.1 ±1.6% | Total arm entries (Swiss mice [5]; acute ip, 6 mg/kg): 20.4 ±1.3 | immobility time, chronic treatment (Swiss mice [6]; 10-day, 0.3 mg/kg ip daily): significantly decreased the immobility time | immobility time, acute treatment (Swiss mice [6]; ip 30 min before, 6, 67 at 3 and 10 mg/kg, 69 at 1, 3, 10, 30 mg/kg, imipramine 30 mg/kg): did not decrease the immobility time | chemical stability on storage [7]: no signs of chemical instability | Papp A→B at 50 µM ([8]; male, Sprague-Dawley, pH 7.4, rat intestine, 50 μM donor, mean ± SEM, read-out: apparent permeability coefficient, absorptive direction): 10.8 ± 1.3 ×10⁻⁶ cm/s | Papp B→A at 50 µM ([8]; male, Sprague-Dawley, pH 7.4, rat intestine, 50 μM donor, mean ± SEM, read-out: apparent permeability coefficient, eliminatory direction): 35.4 ± 9.9 ×10⁻⁶ cm/s | permeability classification ([8]; rat intestine in vitro): intermediate/moderate permeability | thermodynamic solubility [9]: ≥ 8.6 g/250 mL | residual activity, p-tyramine (0.5 mM), in vitro (MAO-A/B): 31.3 ± 0.2% | locomotor activity (Swiss mice [10]; 10-day treatment, 0.3 mg/kg, 5-min session): 598.3 ±14.7 counts | effects in the locomotor activity test, chronic low dose (Swiss mice [10]; 10-day, 0.3 mg/kg ip daily): No significant effects | locomotion (Swiss mice [10]; acute 3 mg/kg ip): not altered

C#CCN1CCC(CCc2ccc(C(F)(F)F)cc2)CC1 [Compound 100, 1-(Prop-2-yn-1-yl)-4-(4-(trifluoromethyl)phenethyl)piperidine]
IC50(MAO-A) class (hMAO-A): na (na-not_active(RA_at_100micromolar>50%)) | cytotoxic effects (SH-SY5Y cells [3]): no significant cytotoxic effects | Ki (5-HT1A receptor): 25.9 ± 1.5 µM | body mass variations versus control mice (Swiss mice [4]): No significant differences | ex vivo MAO-B activity after haloperidol-induced catalepsy test (MAO-B [11]): decreased MAO-B activity | chemical stability on storage [7]: no signs of chemical instability | latency time to descent from the bar (Swiss mice [12]; 10-day i.p. 0.3 mg/kg daily): increased significantly | reversal of haloperidol-induced catalepsy (Swiss mice [12]; acute i.p. 3 mg/kg): did not reverse the catalepsy | parameters of the hole–board test (Swiss mice [13]; 10 days, 0.3 mg/kg ip daily): did not affect | hole–board test parameters (Swiss mice [13]; acute ip doses of ≥10 mg/kg): reduced | thermodynamic solubility [9]: ≥ 16.3 g/250 mL | residual activity, p-tyramine (0.5 mM), in vitro (MAO-A/B): 59.4 ± 0.2% | locomotor activity (Swiss mice [10]; 10 days, 0.3 mg/kg ip daily): did not affect | locomotor activities (Swiss mice [10]; acute ip doses of ≥10 mg/kg): reduced
